Data taken from patent US6458760B1, “Method for treating tissue damaged from ischemia” (Henry Ford Health System, priority 1998, dated 2002).
Non-standard residues stand in square brackets, D forms with d. Residues, ends and D or L forms follow the SMILES beside them. *: point of attachment. Phe(4-NO2) = N[CH](Cc1ccc([N+](=O)[O-])cc1)C(=O)O; Cit = NC(=O)NCCC[CH](N)C(=O)O; Cbz = O=C(OCc1ccccc1)*; CHN2 = [N-]=[N+]=C*; Bn = c1ccc(C*)cc1; tBu = CC(C)(C)*

Columns and labels:
Cathepsin B = Cathepsin B (Homo sapiens, UniProt P07858); test: Cathepsin B inactivation rate, fluorimetric progress curves; assay type: biochemical; conditions: second order inactivation rate constant corrected for substrate; pH 5.4, 30° C.
Protocol: (§1) (“Tian, et al.”) the contents of which are incorporated by reference. More specifically, the value of kobs is given by the slope of a plot of ln [P]∞−[p]t versus t (time). The apparent second-order rate contact for inactivation, k2app was calculated as kobs/[I]. The inactivation-rates (kobs) in the presence of substrate and for different inhibitor concentrations for calpain, cathepsin B and cathepsin L are determined according to the method of Tian, et al. However, k2app is corrected for the presence of substrate (s) to give the second order rate constant k^12app, calculated as k^12app=k2app (1+[s]/Km).
Cathepsins B and L were preactivated with […] DTT in 50 mM sodium acetate buffer, pH 5.4, 1 mM EDTA for 2 h at 4° C. and assayed in the same buffer with 0.01% Brij [poly(oxyethylene) glycol dodecyl ether]. […] The inhibitors (0.1-1 μM) and substrate were added to the reaction mixture to incubate for 5 min in a cuvette thermostated at 30° C. Then, approximately 0.4 nM and 0.1 nM final concentration of cathepsin B and cathepsin L, respectively, were used to initiate the reaction. […] The progress curves were analyzed over at least 3 half lives to calculate the rate constants of inactivation in accordance with the procedure described by Crawford, C. Mason, R. W., Wilkström, P., and Shaw, E. in an article entitled “The design of peptidyldiazomethane inhibitors to distinguish between the cysteine proteinases calpain II, cathepsin L and cathepsin B.”, Biochem. J. 1988, 253, 751-758, the contents of which are incorporated by reference. The rates of inactivation of various substrates are tabulated hereinbelow.

Cathepsin L = Cathepsin L (Homo sapiens, UniProt P07711); test: Cathepsin L inactivation rate, fluorimetric progress curves; assay type: biochemical; conditions: second order inactivation rate constant corrected for substrate; substrate Z-Phe-Arg-AMC; pH 5.4, 30° C.
Cathepsin L, sequence (P07711 114-333, species assumed): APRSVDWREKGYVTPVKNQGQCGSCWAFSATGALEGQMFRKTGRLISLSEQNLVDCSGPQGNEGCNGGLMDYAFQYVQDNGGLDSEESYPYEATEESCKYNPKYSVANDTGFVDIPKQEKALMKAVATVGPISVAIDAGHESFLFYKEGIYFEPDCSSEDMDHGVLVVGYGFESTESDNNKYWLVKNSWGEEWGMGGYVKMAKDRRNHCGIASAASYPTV
Protocol: as §1
Cathepsins B and L were preactivated with […] DTT in 50 mM sodium acetate buffer, pH 5.4, 1 mM EDTA for 2 h at 4° C. and assayed in the same buffer with 0.01% Brij [poly(oxyethylene) glycol dodecyl ether]. 5 μM (final concentration) CBZ-Phe-Arg-AMC was used as substrate for both for cathepsins B and L. The inhibitors (0.1-1 μM) and substrate were added to the reaction mixture to incubate for 5 min in a cuvette thermostated at 30° C. Then, approximately 0.4 nM and 0.1 nM final concentration of cathepsin B and cathepsin L, respectively, were used to initiate the reaction. […] The progress curves were analyzed over at least 3 half lives to calculate the rate constants of inactivation in accordance with the procedure described by Crawford, C. Mason, R. W., Wilkström, P., and Shaw, E. in an article entitled “The design of peptidyldiazomethane inhibitors to distinguish between the cysteine proteinases calpain II, cathepsin L and cathepsin B.”, Biochem. J. 1988, 253, 751-758, the contents of which are incorporated by reference. The rates of inactivation of various substrates are tabulated hereinbelow.

[1] = test system: Wistar rats with MCA occlusion; test: Stroke model, 2 h MCA occlusion, i.v. infusion after reperfusion, infarct volume at 7 days; assay type: in vivo, rat; conditions: 2 h MCA occlusion; for % Hemisphere Infarct Volume (% ± SEM): day 7, control 37 ± 2.6
Protocol: Male Wistar rat weighing between 270-290 gm are fasted the night prior to surgery. Each rat was then anesthetized with 3.5% halothane, and spontaneously respired with 0.5% halothane in a 2:1 N2O:O2 mixture using a face mask. A normal range of blood gases and pH is maintained during ischemia and reperfusion with the face mask inhalation, as verified by samples taken from a femoral artery PE-50 catheter. Body temperature is maintained constant at 37° C. with a recirculating heating pad and K module with an intrarectal type T thermocouple. The PE-50 catheters are inserted into the femoral artery and vein following induction of anesthesia to obtain the blood gas, glucose and hemoglobin concentrations and to monitor blood pressure.
The right common carotid artery, external carotid artery and internal carotid artery are isolated using microsurgical techniques. A clamp is applied to the common carotid artery and a 4-0 nylon suture with a rounded tip is inserted into the external carotid artery through a small puncture. The clamp on the common carotid artery is removed. The suture is passed distally into the internal carotid artery until it blocks the middle cerebral artery. Two hours after the MCA occlusion, the animal is again anesthetized, and the nylon suture is removed from the internal carotid artery.
Infusion of the inhibitor or vehicle is done by intravenous infusion via the femoral vein.
Syringe pumps were filled under sterile conditions with either isotonic saline/1% DMSO solution as the control or with the concentration of CP-1 or CP-2 indicated in the examples, hereinbelow. The pumps delivered the solution at a rate of 15 μl/min for up to 4 hours.
After anesthesia had been induced in the rat, a catheter was inserted into the femoral vein and tunneled subcutaneously in the posterior neck region. Body temperature was maintained at a constant temperature of 37° C. during surgical procedures. The animals underwent 2 hours of MCA occlusion, and then reperfusion when the suture was withdrawn, and immediately thereafter, the drug was infused for four hours. The animals were killed after a 7-day reperfusion, and the brains were formalin fixed and sliced 6-μm thick into seven coronal sections A-G, and mounted on coated slides. After staining with hematoxylin and eosin, the stroke volume was measured using an image analysis program. The stroke area and the contralateral hemispheric area were calculated by tracing the areas on the computer screen, and the volumes were determined by multiplying the appropriate area by the section interval thickness. The stroke volume is expressed as the percentage of lesion size to the volume of contralateral hemisphere. Statistical analysis was performed using the independent t-test.
CP-1 dissolved in 1% DMSO and isotonic saline was given intravenously to Wistar rats (15 μl/min) at concentrations of 2 μM, 10μM, 50μM and 25μM for 4 hours immediately after reperfusion following two hours of MCA occlusion, in accordance with the procedure described hereinabove. Control animals underwent a similar protocol but they had injected therein 1% DMSO/Saline as the vehicle within four hours. All animals which survived 7 days were sacrificed and the stroke volume calculated. The results are tabulated hereinbelow:
The protocol described hereinabove was repeated with CP-2 used in lieu of CP-1, at doses of 10, 50, 250 and 500 μM.

Calpain = Calpain inactivation rate, fluorimetric progress curves; assay type: biochemical; conditions: second order inactivation rate constant corrected for substrate; substrate Suc-Leu-Tyr-AMC; pH 7.5, 37° C.
Protocol: as §1
Calpain was assayed fluorimetrically in 1 ml of 50 mM Tris/acetate buffer, pH 7.5, containing 5 mM CaCl2, 2.5 mM DTT(dithiothreitol), 0.1% Triton X-100 at 37° C., using 2.5×10^−4 M Suc-Leu-Tyr-aminomethylcoumarin (AMC) (Novabiochem, Switzerland) as substrate and 50nM (final concentration) of enzyme. The appearance of the 7-amino-4 methylcoumarin product was recorded continuously with a Perkin Elmer 650-10S spectrofluorimeter, a SPEX Fluorolog 1680, or SLM 8000C fluorescence spectrometer with excitation at 370 nm and emission at 460 nm.
Typically, 5 μL of the substrate solution (50 mM stock in DMSO) was added to 1 mL of buffer. Varying concentrations of the inhibitor solution (10 μL of a DMSO […] solution) were added, followed by 10 μL of calpain in the assay buffer. After allowing the reaction mixture to incubate for 2-5 min, during which time a steady baseline level of fluorescence was measured, calcium was added in a 10-μL volume to initiate hydrolysis of the fluorogenic substrate, and the resulting increase in fluorescence was monitored continuously. When inhibitors were tested at very low concentrations, the enzyme concentration was reduced to maintain a minimum of a 10-fold excess of inhibitor over enzyme.

Compound	Cathepsin B k′2app (Cathepsin B)	Cathepsin L k′2app (Cathepsin L)	Calpain k′2app (Calpain)	other results
CC(C)CC(NC(=O)OCc1ccccc1)C(=O)NC(Cc1c[nH]c2ccccc12)C(=O)C=[N+]=[N-] (stereo not drawn) [CBZ-Leu-Trp-CHN2, benzyloxycarbonyl-Leu-Trp-CHN2]	<50 M^−1S^−1	12,000 M^−1S^−1	–	–
CC(C)(C)Oc1ccc(CC(NC(=O)C(Cc2ccccc2)NC(=O)OCc2ccccc2)C(=O)C=[N+]=[N-])cc1 (stereo not drawn) [CP-2, benzyloxycarbonyl-Phe-Tyr(OtBu)-CHN2] (Cbz-Phe-Tyr(tBu)-CHN2; configuration not given here)	10 M^−1S^−1	200,000 M^−1S^−1	<10 M^−1S^−1	% Hemisphere Infarct Volume (% ± SEM) ([1]; 10 μM i.v. 15 μl/min for 4 h after reperfusion): 28 ± 4.6, p > 0.05%; % Hemisphere Infarct Volume (% ± SEM) ([1]; 50 μM i.v. 15 μl/min for 4 h after reperfusion): 35 ± 4.8, p > 0.05%; % Hemisphere Infarct Volume (% ± SEM) ([1]; 250 μM i.v. 15 μl/min for 4 h after reperfusion): 21 ± 4.7, p = 0.01%; % Hemisphere Infarct Volume (% ± SEM) ([1]; 500 μM i.v. 15 μl/min for 4 h after reperfusion): 22 ± 3.5, p = 0.004%; effectiveness in reducing stroke damage ([1]; doses 10, 50, 250 and 500 μM): High doses of CP-2 were effective, but not the lower doses
CSCCC(NC(=O)C(CC(C)C)NC(=O)OCc1ccccc1)C(=O)C=[N+]=[N-] (stereo not drawn) [CBZ-Leu-Met-CHN2, benzyloxycarbonyl-Leu-Met-CHN2] (Cbz-Leu-Met-CHN2; configuration not given here)	4,060 M^−1S^−1	212,000 M^−1S^−1	–	–
CC(C)CC(NC(=O)OCc1ccccc1)C(=O)NC(Cc1ccc(O)cc1)C(=O)C=[N+]=[N-] (stereo not drawn) [CBZ-Leu-Tyr-CHN2, benzyloxycarbonyl-Leu-Tyr-CHN2] (Cbz-Leu-Tyr-CHN2; configuration not given here)	<50 M^−1S^−1	1,500,000 M^−1S^−1	1,470 M^−1S^−1	–
CC(NC(=O)C(Cc1ccc(I)cc1)NC(=O)OCc1ccccc1)C(=O)C=[N+]=[N-] (stereo not drawn) [CBZ-Phe(I)-Ala-CHN2, benzyloxycarbonyl-Phe (I) -Ala-CHN2]	980 M^−1S^−1	130,000 M^−1S^−1	–	–
[N-]=[N+]=CC(=O)C(CSCc1ccccc1)NC(=O)C(Cc1ccccc1)NC(=O)OCc1ccccc1 (stereo not drawn) [CBZ-Phe-Cys(SBnz1)-CHN2, benzyloxycarbonyl-Phe-Cys-(SBz)-CHN2] (Cbz-Phe-Cys(Bn)-CHN2; configuration not given here)	30,000 M^−1S^−1	390,000 M^−1S^−1	–	–
[N-]=[N+]=CC(=O)C(Cc1ccc([N+](=O)[O-])cc1)NC(=O)C(Cc1ccccc1)NC(=O)OCc1ccccc1 (stereo not drawn) [CBZ-Phe-Phe(pNO2)-CHN2, benzyloxycarbonyl-Phe-Phe (p-N02) -CHN2] (Cbz-Phe-[Phe(4-NO2)]-CHN2; configuration not given here)	50 M^−1S^−1	190,000 M^−1S^−1	–	–
[N-]=[N+]=CC(=O)C(CCCNC(N)=O)NC(=O)C(Cc1ccccc1)NC(=O)OCc1ccccc1 (stereo not drawn) [CBZ-Phe-Cit-CHN2, benzyloxycarbonyl-Phe-Cit-CHN2] (Cbz-Phe-[Cit]-CHN2; configuration not given here)	6,700 M^−1S^−1	1,800,000 M^−1S^−1	–	–
benzyloxycarbonyl-Phe-Ala-CHN2 [CBZ-Phe-Ala-CHN2]	1,200 M^−1S^−1	160,000 M^−1S^−1	<5 M^−1S^−1	–
[N-]=[N+]=CC(=O)[C@H](Cc1ccccc1)NC(=O)[C@H](Cc1ccccc1)NC(=O)OCc1ccccc1 [CBZ-Phe-Phe-CHN2, benzyloxycarbonyl-Phe-Phe-CHN2] (Cbz-Phe-Phe-CHN2)	350 M^−1S^−1	140,000 M^−1S^−1	–	–
CC(C)C[C@H](NC(=O)OCc1ccccc1)C(=O)N[C@@H](CC(C)C)C(=O)N[C@@H](Cc1ccc(O)cc1)C(=O)C=[N+]=[N-] [CBZ-Leu-Leu-Tyr-CHN2, benzyloxycarbonyl -Leu-Leu-Tyr-CHN2] (Cbz-Leu-Leu-Tyr-CHN2)	1,300 M^−1S^−1	1,500,000 M^−1S^−1	230,000 M^−1S^−1	–
CC(OC(C)(C)C)C(NC(=O)C(Cc1ccccc1)NC(=O)OCc1ccccc1)C(=O)C=[N+]=[N-] (stereo not drawn) [CBZ-Phe-Thr(OtBu)-CHN2, benzyloxycarbonyl-Phe-Thr(O-t-Bu)-CHN2]	160 M^−1S^−1	60,000 M^−1S^−1	–	–
